The text below walks through data of patent US20130316994A1, “Methods of Reducing Risk of Hepatobiliary Dysfunction During Rapid Weight Loss with METAP-2 Inhibitors” (Zafgen, Inc., priority 2010, published 2013).

For this experiment, the system named is alkaline phosphatase. Nature of the experiment: Administration of MetAP2 inhibitor to obese patients: alkaline phosphatase. It counts as in vivo, human. As to conditions: 0.1, 0.3 or 0.9 mg/m^2 administered biweekly for 26 days, versus placebo, FIG. 1. As to the method:
Patients treated with either a placebo, 0.1 mg/m^2 (approximately 0.2 mg per dose) of the MetAP2 inhibitor O-(4-dimethylaminoethoxycinnamoyl)fumagillol, 0.3 mg/m^2 (approximately 0.6 mg per dose), or 0.9 mg/m^2 of calculated body surface area (approximately 1.9 mg per dose) administered biweekly for 26 days. […] This reduction is indicative of a decrease in hepatic injury or hepatobiliary dysfunction, which is consistent with reduced biliary sludging and/or gallstone formation.

As to `CO[C@@H]1[C@H](OC(=O)C=Cc2ccc(OCCN(C)C)cc2)CC[C@]2(CO2)[C@H]1[C@@]1(C)O[C@@H]1CC=C(C)C` [O-(4-dimethylaminoethoxycinnamoyl)fumagillol], the “reduction in alkaline phosphatase” value is recorded as “significant reduction in alkaline phosphatase was observed with increasing MetAP2 inhibitor dosage”.
